This note sets out measurements from patent US20240390490A1, “PHARMACEUTICAL COMPOSITIONS FOR THE TREATMENT OF CANCERS” (Rutgers, The State University of New Jersey, priority 2021, published 2024).

One assay deals with NK-92 MI cells. Put plainly: Cytotoxic protein levels in human NK cells (Western blot). It counts as cell-based. To be noted: 50 μM, 12 hours. In general terms: A western blot detects proteins with antibodies after separation by electrophoresis.
Assay [1] concerns MDA-MB-231 cells. Put plainly: Cell cycle analysis (PI staining). The assay is classed as cell-based, human. To be noted: 100 μM. As for the experimental part: Cell cycle analysis of breast cancer cells was carried out using propidium iodide (PI) staining protocol according to the manufacturer's instructions (Nexcelom Bioscience LLC, Lawrence, MA). […] Then, cells were harvested by trypsinization, centrifuged at 2000 rpm for 5 minutes, washed with PBS (pH 7.4), and fixed in ice cold 100% ethanol for 15 minutes. The cells were spun down and resuspended in 150 μl of PI-staining solution provided with the Cellometer PI Cell Cycle Kit. The PI-stained cells were then subjected to analysis in the Cellometer Vision instrument (Nexcelom Bioscience LLC) and the data was captured on Cellometer Vision CBA software (Nexcelom Bioscience LLC) and analyzed by FCS Express 4 software (Molecule Devices, Corp., Sunnyvale, CA). Differences in fluorescence intensity were used to determine the percentage of cells in each phase of the cell cycle and represented as histograms for control and drug-treated samples.

Assay [2] deals with MDA-MB-231, MDA-MB-468, and T47D cells. Put plainly: Western blot of apoptotic regulatory proteins in breast cancer cells. As to conditions: 100-μM, 48 hours (Example 9). It counts as cell-based, human. As for the experimental part: For protein analyses, tumor tissues from in vivo experiments, enriched NK cells from the spleen, and NK-92 MI cancer cell co-incubated samples were lysed with a buffer containing protease and phosphatase inhibitors (25 mM Tris-HCl, pH 7.4; 150 mM NaCl; 1% Nonidet P-40; 1 mM EDTA; and 5% glycerol with Pierce Halt Protease Inhibitor). Protein ([…]) from total lysate was loaded and separated on a 4-20% SDS-PAGE and transferred overnight to polyvinylidene difluoride membranes. Membranes were incubated with primary Ab for 12 hours at 4° C. in blocking buffer, 5% w/v nonfat dry milk in TBS, and 0.1% Tween 20. The following primary antibodies were purchased from Santa Cruz Biotechnology (Santa Cruz, CA): anti-perforin rabbit polyclonal (1:250), anti-granzyme B mouse monoclonal (1:200), anti-IFN-γ mouse monoclonal (1:250), anti-Snail (1:200), anti-Slug (1:200), and anti-Twist. Anti-E-cadherin (1:250), anti-N-cadherin (1:250), and anti-NKG2D goat polyclonal (1:500) were all from Abcam (Cambridge, MA). Membranes were washed and incubated with peroxidase-conjugated secondary Abs (1:5000; Vector Laboratories) for 1 hour at room temperature. Membranes were incubated with ECL western blot chemiluminescence reagent (Pierce) and exposed to x-ray film, which was developed, and densitometry was performed using Image J analysis software (National Institutes of Health). Each protein was normalized to corresponding intensities for β-actin.
The effects on apoptotic regulatory protein levels and signaling pathway were determined by treating MDA-MB-231, MDA-MB-468, and T47D cells with a 100-μM concentration of the drugs alone or in combination or vehicle alone for 48 hours. After the treatment period, cell were extracted and used for Western blot analysis of anti-apoptotic p-Bcl-xL and p-Bcl2, effector proteins such as p-Bax, pro-apoptotic molecule p-Bim, effector caspase 3 and Cytochrome c levels. Representative blots and mean densitometric values are presented as ratio of β-actin in the histograms. Data presented are mean±SEM (n=5-6 samples/group) and were analyzed using one-way ANOVA with the Newman-Keuls multiple comparisons post hoc test.

In assay [3] the test system is MDA-MB-231 cells. Put plainly: cells. To be noted: read-out: Cell Viability IC50 (μM) ± SEM. The method, then:
(§1) Cells in media with vehicle treatment are considered control wells. MTT (3-(4,5-dimethyl-2-thiazolyl)-2,5-diphenyl-2H-tetrazolium bromide) was prepared as a stock solution of 5 mg/mL in 1× phosphate-buffered saline (PBS, pH 7.2). At the end of the drug treatment period (24 or 48 or 72 hours), 10 μL of MTT solution was added to each well. After incubation for 4 hours at 37° C., 100 μL of solubilizing buffer (10% sodium dodecyl sulfate dissolved in 0.01 N HCl) was added to each well. After a 15-minute incubation at 37° C., the 96-well plate was read by a plate reader at 590 nm for absorbance density values to determine the cell viability. The cell viability (percentage of control) is calculated by using the following formula: (OD of treated well (−blank))/(mean OD control well (−blank))×100. […] Drug effects on these cells were determined in quadruplicate wells in three independent experiments.

Another assay relates to MDA-MB-468 cells. Briefly: cells. As to conditions: read-out: Cell Viability IC50 (μM) ± SEM. As for the experimental part:
as §1

Another assay relates to T47D cells. Put plainly: cells. The method, then: as §1

Each structure is given as a SMILES string. Where two headings read alike, the source gives them in different places.

Protocol for NK-92 MI cells: The human NK cell line NK-92 MI (ATCC) was maintained in alpha minimum essential medium (MEM) without ribonucleosides and deoxyribonucleosides (Gibco) supplemented with final concentrations of 12-5% FBS, 12-5% horse serum (ATCC), 2 mM L-glutamine (Gibco), 1.5 g/L sodium bicarbonate (Gibco), 0.2 mM inositol (Sigma), 0.1 mM 2-mercaptoethanol (Gibco), and 0.02 mM folic acid (Sigma).
For protein analyses, tumor tissues from in vivo experiments, enriched NK cells from the spleen, and NK-92 MI cancer cell co-incubated samples were lysed with a buffer containing protease and phosphatase inhibitors (25 mM Tris-HCl, pH 7.4; 150 mM NaCl; 1% Nonidet P-40; 1 mM EDTA; and 5% glycerol with Pierce Halt Protease Inhibitor). Protein (50 mg) from total lysate was loaded and separated on a 4-20% SDS-PAGE and transferred overnight to polyvinylidene difluoride membranes. Membranes were incubated with primary Ab for 12 hours at 4° C. in blocking buffer, 5% w/v nonfat dry milk in TBS, and 0.1% Tween 20. The following primary antibodies were purchased from Santa Cruz Biotechnology (Santa Cruz, CA): anti-perforin rabbit polyclonal (1:250), anti-granzyme B mouse monoclonal (1:200), anti-IFN-γ mouse monoclonal (1:250), anti-Snail (1:200), anti-Slug (1:200), and anti-Twist. Anti-E-cadherin (1:250), anti-N-cadherin (1:250), and anti-NKG2D goat polyclonal (1:500) were all from Abcam (Cambridge, MA). […]

For `CC(C)NCC(O)COc1cccc2ccccc12` (centres unmarked) [PRO, propranolol], in the assay on NK-92 MI cells, the “granzyme B levels” value is on record as “moderately elevated” and the perforin levels entry is reported as “moderately elevated”. In addition, in the assay with MDA-MB-231 cells [1], the “number of cells in G0/G1 phase” value is “reduced”, the “number of cells in G2/M phase” value is “increased” and the “number of cells in S phase” value was “no significant changes”. Further, in assay [2], the “anti-apoptotic Bcl-xL, p-Bcl-xL, Bcl-2, and p-Bcl-2” value is recorded as “downregulated”; the “levels of Bax, p-Bax and p-Bim” value was “increased”; the “levels of Cytochrome c” value is “increased”.
A word on the IC50: it is the concentration at which inhibition is half-maximal. As for `O=C1CC[C@@]2(O)[C@H]3Cc4ccc(O)c5c4[C@@]2(CCN3CC2CC2)[C@H]1O5` [NTX, 17-(cyclopropylmethyl)-4,5α-epoxy-3,14-dihydroxymorphinan-6-one], the “number of cells in G0/G1 phase” value in the assay with MDA-MB-231 cells [1] is given as “reduced”. The “number of cells in G2/M phase” value in the assay on MDA-MB-231 cells [1] is given as “increased”. The “number of cells in S phase” value in the assay on MDA-MB-231 cells [1] was “no significant changes”. In assay [2], the “anti-apoptotic Bcl-xL, p-Bcl-xL, Bcl-2, and p-Bcl-2” value was “downregulated”. The “levels of Bax, p-Bax and p-Bim” value in assay [2] was “increased”. Moreover, the “levels of Cytochrome c” value in assay [2] was “increased”. The IC50 stood at 140.8 ± 0.15 µM with MDA-MB-231 cells [3] (Homo sapiens, MDA-MB-231, 24 h); 120.5 ± 0.38 µM with MDA-MB-231 cells [3] (Homo sapiens, MDA-MB-231, 48 h); 121 ± 1.65 µM with MDA-MB-231 cells [3] (Homo sapiens, MDA-MB-231, 72 h); 122.4 ± 0.63 µM in the assay on MDA-MB-468 cells (Homo sapiens, MDA-MB-468, 24 h); 121 ± 1.82 µM in the assay on MDA-MB-468 cells (Homo sapiens, MDA-MB-468, 48 h); 120 ± 1.23 µM in the assay with MDA-MB-468 cells (Homo sapiens, MDA-MB-468, 72 h). Further, the 50% inhibitory concentration (IC50) in the assay on T47D cells (Homo sapiens, 24 h, read-out: Cell Viability IC50 (μM) ± SEM) worked out at 125 ± 1.37 µM; in the assay on T47D cells (Homo sapiens, 48 h, read-out: Cell Viability IC50 (μM) ± SEM), 122 ± 1.72 µM; with T47D cells (Homo sapiens, 72 h, read-out: Cell Viability IC50 (μM) ± SEM) it was 120 ± 1.61 µM.
Consider `CC1(C)SSC(C)(C)[C@@H](NC(=O)[C@@H](N)Cc2ccc(O)cc2)C(=O)NCC(=O)N[C@@H](Cc2ccccc2)C(=O)N[C@H]1C(=O)O` [DPDPE, (D-Pen^2, D-Pen^5)-enkephalin], for which the “number of cells in G0/G1 phase” value with MDA-MB-231 cells [1] is given as “reduced”. Moreover, in the assay with MDA-MB-231 cells [1], the “number of cells in G2/M phase” value was “increased”. Further, in the assay on MDA-MB-231 cells [1], the “number of cells in S phase” value was “no significant changes”. For the same compound, the IC50 in the assay with MDA-MB-231 cells [3] (MDA-MB-231, 24 h) came out at 140.4 ± 0.39 µM; with MDA-MB-231 cells [3] (MDA-MB-231, 48 h), 120.8 ± 0.36 µM; in the assay with MDA-MB-231 cells [3] (MDA-MB-231, 72 h), 119.9 ± 1.07 µM; in the assay with MDA-MB-468 cells (MDA-MB-468, 24 h) it was 115 ± 1.23 µM; in the assay on MDA-MB-468 cells (MDA-MB-468, 48 h) it was 118 ± 1.22 µM; with MDA-MB-468 cells (MDA-MB-468, 72 h), 120 ± 2.19 µM. For the same compound, the IC50 in the assay on T47D cells (read-out: Cell Viability IC50 (μM) ± SEM, 24 h) was 125.1 ± 1.21 µM; in the assay on T47D cells (read-out: Cell Viability IC50 (μM) ± SEM, 48 h), 120.2 ± 1.17 µM; with T47D cells (read-out: Cell Viability IC50 (μM) ± SEM, 72 h), 120.46 ± 0.04 µM.
